Read-outs that look alike come from different tables or passages of the source. Marks after values point to notes of the source that are not given here.
Tests used:
[1] = target: T1, human GAL3 receptor (Homo sapiens, UniProt O60755); test: Radioligand binding at cloned human GAL3 receptor; settings: for Ki: read-out: hGAL3 Ki
T1 construct: expressed in transfected cells
T1 sequence (O60755 1-368): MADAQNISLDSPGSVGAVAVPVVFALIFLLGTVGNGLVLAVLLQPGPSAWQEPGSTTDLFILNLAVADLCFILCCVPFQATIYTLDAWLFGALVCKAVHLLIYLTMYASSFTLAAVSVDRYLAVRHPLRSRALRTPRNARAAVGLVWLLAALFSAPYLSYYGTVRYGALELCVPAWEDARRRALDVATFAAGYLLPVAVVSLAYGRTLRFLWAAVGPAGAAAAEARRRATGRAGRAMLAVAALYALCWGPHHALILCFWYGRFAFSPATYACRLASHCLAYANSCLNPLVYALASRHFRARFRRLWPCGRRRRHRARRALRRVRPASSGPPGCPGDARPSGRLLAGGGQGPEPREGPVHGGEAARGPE
Description: The present invention provides for a method of determining the binding affinity of a GAL3 antagonist, wherein the GAL3 antagonist is dissolved in a “suitable solvent”. A “suitable solvent” means one which permits the measurement of binding affinity of the GAL3 antagonist to the human GAL3 receptor at concentrations less than 1 μM, preferably less than 100 nM. Examples of solvents include, but are not limited to, DMSO, ethanol, N,N-dimethylacetamide, or water. For indolones, the preferred solvent is 3% DMSO (final concentration in the assay). For pyrimidines, the preferred solvent is 1% ethanol/0.09% polypuronic acid F-127 (final concentration in the assay). For any other type of compounds, the preferred solvent is the solvent which permits the measurement of binding affinity of a GAL3 antagonist at the lowest concentration. Once a suitable solvent is ascertained for the binding assay of the human GAL3 receptor, the same solvent is used in assays to determine the binding affinity for instance, at the GAL1 receptor.
The binding properties of the pyrimidines of the present invention were evaluated at the cloned human galanin receptors, GAL1, GAL2, and GAL3, using protocols described herein.
The binding properties of the indolones of the present invention were evaluated at the cloned human galanin receptors, GAL1, GAL2, and GAL3, using protocols described herein.
LM(tk-) cells were stably transfected with the human GAL1 or GAL3 receptor. CHO cells were stably transfected with the human GAL2 receptor.
cDNAs for the human and rat GAL1, and human and rat GAL3 receptors were transfected with a G-418 resistant gene into the mouse fibroblast LM(tk-) cell line by a calcium phosphate transfection method (Cullen, 1967). Stably transfected cells were selected with G-418. Human and rat GAL2 receptors were similarly transfected into CHO cells.
Membranes were harvested from stably transfected LM(tk-) cells. Adherent cells were washed twice in ice-cold phosphate buffered saline (138 mM NaCl, 8.1 mM Na2HPO4, 2.5 mM KCl, 1.2 mM KH2PO4, 0.9 mM CaCl2, 0.5 mM MgCl2, pH 7.4) and lysed by sonication in ice-cold sonication buffer (20 mM Tris-HCl, 5 mM EDTA, pH 7.7). Large particles and debris were cleared by low speed centrifugation (200×g, 5 min, 4° C.). Membranes were collected from the supernatant fraction by centrifugation (32,000×g, 18 min, 4° C.), washed with ice-cold hypotonic buffer, and collected again by centrifugation (32,000×g, 18 min, 4° C.). The final membrane pellet was resuspended by sonication into a small volume of ice-cold binding buffer (−1 ml for every 5 plates: 10 mM NaCl, 20 mM HEPES, 0.22 mM KH2PO4, 1.26 mM CaCl2, 0.81 mM MgSO4, pH 7.4). Protein concentration was measured by the Bradford method (Bradford, 1976) using Bio-Rad Reagent, with bovine serum albumin as a standard. Membranes were held on ice for up to one hour and used fresh, or flash frozen and stored in liquid nitrogen. Membranes were prepared similarly from CHO cells.
Galanin Receptors: Binding assays were performed according to the following published methods: human GAL3 (PCT International Publication No. WO 98/15570), human GAL1 (PCT International Publication No. WO 95/2260) human GAL2 (PCT International Publication No. WO 97/26853).
(§1) Binding data were analyzed using nonlinear regression and statistical techniques available in the GraphPAD Prism package (San Diego, Calif.). Enzymatic assay data were derived from a standard curve of reference compound data.

[2] = tested on: Male Sprague-Dawley rats; test: Rat Forced Swim Test (FST); format: in vivo; settings: for overall profile in the Forced Swim Test (conclusion in words): rat, in vivo
[3] = target: T2, human 5HT2A receptor (Homo sapiens, UniProt P28223); test: Radioligand binding at human 5HT2A receptor; settings: read-out: h5HT2A Ki
T2 construct: expressed in transfected cells; host or cells: COS-7 cells, transient, vector pCEXV-3
T2 sequence (P28223 whole entry): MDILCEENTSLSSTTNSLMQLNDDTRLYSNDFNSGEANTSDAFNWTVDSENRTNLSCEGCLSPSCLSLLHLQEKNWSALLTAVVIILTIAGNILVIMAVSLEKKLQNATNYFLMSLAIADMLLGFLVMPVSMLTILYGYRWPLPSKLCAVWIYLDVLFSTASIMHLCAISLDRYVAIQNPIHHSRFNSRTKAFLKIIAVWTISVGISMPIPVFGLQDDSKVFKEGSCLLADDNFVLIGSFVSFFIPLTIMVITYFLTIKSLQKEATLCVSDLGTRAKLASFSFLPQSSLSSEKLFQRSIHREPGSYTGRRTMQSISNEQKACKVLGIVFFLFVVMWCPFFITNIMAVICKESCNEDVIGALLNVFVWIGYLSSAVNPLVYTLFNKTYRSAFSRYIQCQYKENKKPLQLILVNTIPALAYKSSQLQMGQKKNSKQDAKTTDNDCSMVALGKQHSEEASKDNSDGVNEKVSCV
Description: Human 5HT2; Receptor: The coding sequence of the human 5HT2A receptor was obtained from a human brain cortex cDNA library, and cloned into the cloning site of pCEXV-3 eukaryotic expression vector. This construct was transfected into COS-7 cells by the DEAE-dextran method (Cullen, 1987). Cells were harvested after 72 hours and lysed by sonication in 5 mM Tris-HCl, 5 mM EDTA, pH 7.5. The cell lysates were subjected to centrifugation at 1000 rpm for 5 minutes at 4° C., and the supernatant was subjected to centrifugation at 30,000×g for 20 minutes at 4° C. The pellet was suspended in 50 mM Tris-HCl buffer (pH 7.7 at room temperature) containing 10 mM MgSO4, 0.5 mM EDTA, and 0.1% ascorbate. The affinity of compounds at 5HT2A receptors were determined in equilibrium competition binding assays using [^3H]ketanserin (1 nM). Nonspecific binding was defined by the addition of 10 μM mianserin. The bound radioligand was separated by filtration through GF/B filters using a cell harvester.
as §1

[4] = 0.3 mg/kg p.o., single administration 1 hr before 5 min test
[5] = 0.3 mg/kg p.o., single administration 1 hr before 5 min test, listed as EX34
[6] = 1 mg/kg p.o., single administration 1 hr before 5 min test
[7] = 1 mg/kg p.o., single administration 1 hr before 5 min test, listed as EX34
[8] = 3 mg/kg p.o., single administration 1 hr before 5 min test
[9] = 3 mg/kg p.o., single administration 1 hr before 5 min test, listed as EX34
[10] = 10 mg/kg p.o., single administration 1 hr before 5 min test
[11] = 10 mg/kg p.o., single administration 1 hr before 5 min test, listed as EX34
[12] = 1 mg/kg i.p., single injection 1 h before 5 min test
[13] = 3 mg/kg i.p., single injection 1 h before 5 min test
[14] = 10 mg/kg i.p., single injection 1 h before 5 min test

Structure (SMILES): Cc1ccc(Nc2cc(N3CCCCC3)nc(N3CCN(c4ncccc4C(F)(F)F)CC3)n2)cc1 [Example 34]
- GAL3/GAL1 binding ratio (Ki GAL1 divided by Ki GAL3) [1]: 39
- Climbing [2, 4]: 3.3 ± 0.7 counts
- Diving [2, 4]: not significantly altered
- Immobility [2, 4]: significantly decreased immobility
- Swimming [2, 4]: significant increase in swimming behavior
- Diving [2, 5]: 0.2 ± 0.1 counts
- Immobility [2, 5]: 45 ± 1.5^a counts
- Swimming [2, 5]: 11.6 ± 0.9^d counts
- Climbing [2, 6]: significant increase in climbing
- Diving [2, 6]: not significantly altered
- Immobility [2, 6]: significantly decreased immobility
- Swimming [2, 6]: significant increase in swimming behavior
- Climbing [2, 7]: 5.0 ± 0.8^c counts
- Diving [2, 7]: 0.3 ± 0.2 counts
- Immobility [2, 7]: 35 ± 1.9^b counts
- Swimming [2, 7]: 19.6 ± 1.3^d,e counts
- Climbing [2, 8]: 4.3 ± 0.8 counts
- Diving [2, 8]: not significantly altered
- Immobility [2, 8]: significantly decreased immobility
- Swimming [2, 8]: significant increase in swimming behavior
- Diving [2, 9]: 0.3 ± 0.3 counts
- Immobility [2, 9]: 35 ± 2.0^b counts
- Swimming [2, 9]: 20.8 ± 1.3^d,e counts
- Climbing [2, 10]: did not significantly alter swimming or climbing
- Diving [2, 10]: not significantly altered
- Immobility [2, 10]: did not significantly decrease in immobility
- Swimming [2, 10]: did not significantly alter swimming or climbing
- Climbing [2, 11]: 2.0 ± 0.4 counts
- Diving [2, 11]: 0.4 ± 0.3 counts
- Immobility [2, 11]: 49 ± 1.4 counts
- Swimming [2, 11]: 8.2 ± 1.2 counts
- overall profile in the Forced Swim Test (conclusion in words) [2]: produces an effect in the FST that resembles that of antidepressants
- Ki [3]: > 50000 nM

Structure (SMILES): O=C1C(=Nc2cccc(C(F)(F)F)c2)c2ccccc2N1c1ccccc1 [Example 92, 1-PHENYL-3-[[3-(TRIFLUOROMETHYL)PHENYL]IMINO]-1,3-DIHYDRO-2H-INDOL-2-ONE]
- Ki ([1]; Table 7): 38 nM
- Ki ([1]; Table 9): 38 nM
- Diving [2, 12]: 0.6±0.2 counts
- Immobility [2, 12]: 28 ± 1.0 counts
- Swimming [2, 12]: 20±1.1 counts
- Diving [2, 13]: 0.6±0.3 counts
- Swimming [2, 13]: 21±0.9 counts
- Diving [2, 14]: 0.5±0.5 counts
- Swimming [2, 14]: 18±0.9 counts
- Diving ([2]; 30 mg/kg i.p., single injection 1 h before 5 min test): 0.2±0.2 counts
- overall profile in the Forced Swim Test (conclusion in words) [2]: has antidepressant-like properties
- Ki [3]: > 50000 nM

Source: patent US20040110821A1, “GAL3 receptor antagonists for the treatment of affective disorders” (priority 2002, published 2004)
